According to patent US9182385B2, “Methods for diagnosis, prognosis and methods of treatment” (NODALITY, INC., priority 2007, dated 2015):

How the values were obtained:
[1] = test system: blood B cells from healthy donors
Protocol: BCR cross-linking and preparation for staining: Cells were thawed at 37° C. in a water bath until partially thawed (˜50%). Cells were thawed into 5% FBS/RPMI at room temperature. The cell suspension was added drop-wise into media. Cells were centrifuged at 900 RPM for 10 minutes with no brake. The supernatants were decanted and pellets resuspended in 25 milliliters (ml) of media. Cells were re-centrifuged at 900 RPM for 10 minutes, decanted again and resuspended in 5 ml of 1% FBS/RPMI. Cells were counted with a hemocytometer using trypan blue staining. The concentration of the cells was adjusted as necessary to reduce crowding. Cells were incubated at 37° C. for 2 hours. The final cell concentration, including additives and reagents (e.g. stimulant, Fab fragment, H2O2, aqua, etc.) was 1.6 million/ml. Cells were aliquoted into wells. […]
Analysis by Flow Cytometry: Between 10,000 and 100,000 un-gated events were collected for each sample on the BD LSR II flow cytometry machine. The fluorescent anti-bodies directed to extra-cellular markers (i.e. CD3, CD4, CD8, CD5 and CD20) were used to mark the cells and a hierarchical gating strategy was used to identify the B-Cells and mature B-Cell population among the recorded events as described below: • a. […] All the recorded events were also marked by the following intra-cellular markers p-Erk, p-Syk/Zap70, and p-BLNK. […]

[2] = test system: CLL cells; assay: Phospho-specific multiparametric flow cytometry of BCR signaling in CLL patient samples; assay type: cell-based, human
Protocol: (§1) Ramos cells were maintained and cultured using methods known in the art. Cells from CLL patients were obtained using methods known in the art.
(§2) The cell suspension was added drop-wise into media. […] Cells were incubated at 37° C. for 2 hours. […] Cells were aliquoted into wells.
(§3) Cells were washed twice. […] Cocktail • (i) CD3 pac blue=160 μl • (ii) CD4 APC=80 μl • (iii) CD8 PE Cy7=80 μl • (iv) CD5 PE Cy5=400 μl • (v) CD20 PerCP Cy5.5=800 μl • (vi) p-Erk=800 μl • (vii) p-BLNK=800 μl • (viii) p-Syk/ZAP70=800 μl • b. […] Each well received 100 μl of this cocktail mix.
Cells were prepared and stained as described above.

[3] = test system: Ramos cells; assay: Phospho-specific multiparametric flow cytometry of BCR signaling in Ramos cells; assay type: cell-based; details: FIG. 1, fluorescence above autofluorescence and background
Protocol: as §1, §2, §3

[4] = CD20+/CD5+ cell population of CLL samples, kinetics

| SMILES | phosphorylation of p72SYK/p70ZAP, ERK1/2, BLNK, PLCγ2 ([1]; blood B cells from healthy donors) | activation of signaling post BCR ([1]; normal B cells, H2O2 by itself, FIG. 7) | PLCγ2 phosphorylation [2, 4] | phosphorylation of rpS6 [2, 4] | levels of phosphorylated p72SYK/p70ZAP, ERK1/2, BLNK, and PLCγ2 ([2]; CLL cells of some patients, independent of surface F(ab)2anti-μ ligation) | activation of Erk and Syk ([2]; CLL samples, inhibition of phosphatases, FIG. 6) | tonic BCR signaling revealed by inhibition of phosphatases ([2]; other CLL samples, FIG. 10) | responsiveness (phosphorylated p72SYK/p70ZAP, ERK1/2, BLNK, PLCγ2) ([2]; other CLL-B cells, even in the presence of F(ab)2anti-μ) | activation of p-Erk across patients ([2]; CLL patient samples, regardless of ZAP70 expression (summary)) | p-Erk and p-Syk phosphorylation ([2]; CLL samples with low and high frequency of ZAP70, FIG. 5) | Erk and Syk phosphorylation ([2]; other CLL samples, FIG. 9) | activation of Erk ([2]; pheresed CLL samples, FIG. 3) | activation of p-Erk and p-Syk/pZap70 [3] |
| --- | --- | --- | --- | --- | --- | --- | --- | --- | --- | --- | --- | --- | --- |
| OO [H2O2, hydrogen peroxide] | failed to elicit a substantial increase | incapable of activating post BCR by itself | increased | attenuates | induced high-levels | activates | does not reveal strong tonic BCR signaling | significantly less responsive |  |  |  |  |  |
| CCCCCCCCCCCCCC(=O)O[C@@H]1[C@@H](C)[C@@]2(O)[C@@H](C=C(CO)C[C@]3(O)C(=O)C(C)=C[C@@H]23)[C@@H]2C(C)(C)[C@]12OC(C)=O [PMA] |  |  |  |  |  |  |  |  | comparable in all patients | modest | modest | activates | activates |
